Source: ChEMBL document CHEMBL5608163, “Structure modification of anoplin for fighting resistant bacteria” (Eur J Med Chem, 2024)
In brackets after ≈: the same amount, converted by molar mass. One block for each compound: values may come before it. Bridge positions count the residues as written; N and C are the ends. Square brackets hold non-standard residues; d marks the D form. Triazole bridges read from a SMILES are 1,4-linked. Peptide text beside a SMILES is read from it. I, II: the chains in the order shown. Lys(N3) = [N-]=[N+]=NCCCC[C@H](N)C(=O)O; S5 = C=CCCC[C@](C)(N)C(=O)O; Pra = C#CC[C@H](N)C(=O)O

How the values were obtained:
Enterococcus faecium [1] = experiment: Antibacterial activity against Enterococcus faecium ATCC 27270; assay type: functional
Escherichia coli [2] = experiment: Antibacterial activity against Escherichia coli ATCC 25922 assessed as reduction in bacterial growth; assay type: functional
Escherichia coli [3] = experiment: Antibacterial activity against Escherichia coli; assay type: functional
Staphylococcus aureus [4] = experiment: Antibacterial activity against Staphylococcus aureus; assay type: functional
Pseudomonas aeruginosa [5] = experiment: Antibacterial activity against Pseudomonas aeruginosa assessed as reduction in bacterial growth by broth microdilution method; assay type: functional
[6] = Hemolytic activity in human RBC assessed as hemolysis; assay type: toxicity, cell-based, Erythrocyte; conditions: red blood cells
Staphylococcus aureus [7] = experiment: Antibacterial activity against Staphylococcus aureus ATCC 29213 assessed as bacterial growth inhibition measured after 18 hrs by CLSI protocol based two-fold serial microdilution method; assay type: functional
Erythrocyte [8] = experiment: Hemolytic activity in sheep RBC incubated for 30 mins; assay type: toxicity, cell-based, Ovis aries; conditions: 0.5 h
Pseudomonas aeruginosa [9] = experiment: Antibacterial activity against Pseudomonas aeruginosa PAO1 assessed as bacterial growth inhibition measured for 18 hrs by CLSI-protocol based Mueller-Hinton Broth micro-dilution assay; assay type: functional
Escherichia coli [10] = experiment: Antibacterial activity against Escherichia coli K12 assessed as bacterial growth inhibition measured for 18 hrs by CLSI-protocol based Mueller-Hinton Broth micro-dilution assay; assay type: functional
Pseudomonas aeruginosa [11] = experiment: Antibacterial activity against Pseudomonas aeruginosa ATCC 27853 assessed as bacterial growth inhibition measured for 18 hrs by CLSI-protocol based Mueller-Hinton Broth micro-dilution assay; assay type: functional
Bacillus subtilis [12] = experiment: Antibacterial activity against Bacillus subtilis 168 assessed as bacterial growth inhibition measured for 18 hrs by CLSI-protocol based Mueller-Hinton Broth micro-dilution assay; assay type: functional
Staphylococcus aureus [13] = experiment: Antibacterial activity against Staphylococcus aureus ATCC 29213 assessed as bacterial growth inhibition measured for 18 hrs by CLSI-protocol based Mueller-Hinton Broth micro-dilution assay; assay type: functional
Staphylococcus aureus [14] = experiment: Antibacterial activity against methicillin-resistant Staphylococcus aureus ATCC BAA1720 assessed as bacterial growth inhibition measured for 18 hrs by CLSI-protocol based Mueller-Hinton Broth micro-dilution assay; assay type: functional
Escherichia coli [15] = experiment: Antibacterial activity against Escherichia coli MG1655 assessed as bacterial growth inhibition measured for 18 hrs by CLSI-protocol based Mueller-Hinton Broth micro-dilution assay; assay type: functional
Salmonella typhimurium = experiment: Antibacterial activity against Salmonella enterica subsp. enterica serovar Typhimurium LT2 assessed as bacterial growth inhibition measured for 18 hrs by CLSI-protocol based Mueller-Hinton Broth micro-dilution assay; assay type: functional
Escherichia coli [16] = experiment: Antibacterial activity against Escherichia coli ATCC 25922 assessed as bacterial growth inhibition incubate for 18 to 20 hrs by MH broth based assay; assay type: functional; conditions: time 18-20 hrs
[17] = Hemolytic activity in human RBC; assay type: toxicity, cell-based, Erythrocyte; conditions: red blood cells
Bacillus subtilis [18] = experiment: Antimicrobial activity against Bacillus subtilis ATCC 23857 assessed as reduction in microbial growth incubated for 18 to 20 hrs by Mueller-Hinton broth based microdilution method; assay type: functional; conditions: time 18-20 hrs
[19] = Hemolytic activity in mouse RBC incubated for 1 hr; assay type: toxicity, cell-based, Erythrocyte; conditions: red blood cells
Enterococcus faecium [20] = experiment: Antimicrobial activity against Enterococcus faecium assessed as reduction in microbial growth incubated for 18 to 20 hrs by Mueller-Hinton broth based microdilution method; assay type: functional; conditions: time 18-20 hrs
Staphylococcus aureus [21] = experiment: Antimicrobial activity against Staphylococcus aureus ATCC 25923 assessed as reduction in microbial growth incubated for 18 to 20 hrs by Mueller-Hinton broth based microdilution method; assay type: functional; conditions: time 18-20 hrs
Erythrocyte [22] = experiment: Hemolytic activity in human red blood cells; assay type: toxicity, cell-based; conditions: erythrocyte
Escherichia coli [23] = experiment: Antibacterial activity against Escherichia coli ATCC 25922 assessed as reduction in bacterial growth measured after 18 hrs by CLSI protocol-based Mueller-Hinton broth dilution method; assay type: functional
Pseudomonas aeruginosa [24] = experiment: Antibacterial activity against Pseudomonas aeruginosa ATCC 27853 assessed as reduction in bacterial growth measured after 18 hrs by CLSI protocol-based Mueller-Hinton broth dilution method; assay type: functional
Staphylococcus aureus [25] = experiment: Antibacterial activity against Staphylococcus aureus ATCC 25923 assessed as reduction in bacterial growth measured after 18 hrs by CLSI protocol-based Mueller-Hinton broth dilution method; assay type: functional
Bacillus subtilis [26] = experiment: Antibacterial activity against Bacillus subtilis ATCC 23857 assessed as reduction in bacterial growth measured after 18 hrs by CLSI protocol-based Mueller-Hinton broth dilution method; assay type: functional

MIC (Enterococcus faecium [1]): 9.5 µM (≈ 11.2 µg/mL)
MIC (Escherichia coli [2]): 62.2 µM (≈ 73.6 µg/mL)
MIC (Escherichia coli [3]): 14.2 µM (≈ 16.8 µg/mL)
MIC (Staphylococcus aureus [4]): 19.6 µM (≈ 23.2 µg/mL)
MIC (Pseudomonas aeruginosa [5]): 28.4 µM (≈ 33.6 µg/mL)
MIC (Staphylococcus aureus [7]): 62.2 µM (≈ 73.6 µg/mL)
Structure (SMILES): CC[C@H](C)[C@H](NC(=O)[C@H](Cc1c[nH]c2ccccc12)NC(=O)[C@H](CCCCN)NC(=O)[C@H](CC(C)C)NC(=O)[C@H](CC(C)C)NC(=O)CN)C(=O)N[C@@H](CCCCN)C(=O)N[C@H](C(=O)N[C@@H](CC(C)C)C(=O)N[C@@H](CC(C)C)C(N)=O)[C@@H](C)O (H-GLLKWIKTLL-NH2)
HC50 [6]: 14 µM

Structure (SMILES): CC[C@H](C)[C@@H]1NC(=O)[C@@](C)(NC(=O)[C@H](CCCCN)NC(=O)[C@H](CC(C)C)NC(=O)[C@H](CC(C)C)NC(=O)CN)CCC/C=C\CCC[C@@](C)(C(=O)N[C@@H](CC(C)C)C(N)=O)NC(=O)[C@H]([C@@H](C)O)NC(=O)[C@H](CCCCN)NC1=O (H-GLLK[S5]IKT[S5]L-NH2; staple (Z) 5-9)
HC10 (Erythrocyte [8]): 8 µM
MIC (Pseudomonas aeruginosa [9]): 16 µM (≈ 18.2 µg/mL)
MIC (Escherichia coli [10]): 8 µM (≈ 9.08 µg/mL)
MIC (Pseudomonas aeruginosa [11]): 32 µM (≈ 36.3 µg/mL)
MIC (Bacillus subtilis [12]): 4 µM (≈ 4.54 µg/mL)
MIC (Staphylococcus aureus [13]): 4 µM (≈ 4.54 µg/mL)
MIC (Staphylococcus aureus [14]): 4 µM (≈ 4.54 µg/mL)
MIC (Escherichia coli [15]): 32 µM (≈ 36.3 µg/mL)
MIC (Salmonella typhimurium): 32 µM (≈ 36.3 µg/mL)

MIC (Escherichia coli [16]): 16 µM (≈ 21.7 µg/mL)
MIC (Bacillus subtilis [18]): 8 µM
MIC (Enterococcus faecium [20]): 8 µM
MIC (Staphylococcus aureus [21]): 16 µM
Structure (SMILES): CC(C)C[C@H](NC(=O)[C@H](CC(C)C)NC(=O)[C@H](CCCCN)NC(=O)[C@H](CCCCN)NC(=O)[C@H](Cc1c[nH]c2ccccc12)NC(=O)[C@H](Cc1c[nH]c2ccccc12)NC(=O)[C@H](CCCCN)NC(=O)[C@H](CC(C)C)NC(=O)[C@H](CC(C)C)NC(=O)[C@@H](N)CCCCN)C(N)=O (H-KLLKWWKKLL-NH2)
HC50 [17]: > 200 µM
HC50 at 1 h [19]: > 200 µM

MIC (Escherichia coli [23]): 4 µM (≈ 10.6 µg/mL)
MIC (Pseudomonas aeruginosa [24]): 16 µM (≈ 42.2 µg/mL)
MIC (Staphylococcus aureus [25]): 8 µM (≈ 21.1 µg/mL)
MIC (Bacillus subtilis [26]): 2 µM (≈ 5.28 µg/mL)
Structure (SMILES): CC[C@H](C)[C@H](NC(=O)[C@H](CCCNC(=N)N)NC(=O)[C@H](CCCCN)NC(=O)[C@H](CC(C)C)NC(=O)[C@H](CC(C)C)NC(=O)CNC(=O)[C@H](CCCCn1cc(C[C@H](NC(C)=O)C(=O)NCC(=O)N[C@@H](CC(C)C)C(=O)N[C@@H](CC(C)C)C(=O)N[C@@H](CCCCN)C(=O)N[C@@H](CCCNC(=N)N)C(=O)N[C@H](C(=O)N[C@@H](CCCCN)C(=O)N[C@H](C(=O)N[C@@H](CC(C)C)C(=O)N[C@@H](CC(C)C)C(N)=O)[C@@H](C)O)[C@@H](C)CC)nn1)NC(C)=O)C(=O)N[C@@H](CCCCN)C(=O)N[C@H](C(=O)N[C@@H](CC(C)C)C(=O)N[C@@H](CC(C)C)C(N)=O)[C@@H](C)O (I: Ac-[Lys(N3)]GLLKRIKTLL-NH2 / II: Ac-[Pra]GLLKRIKTLL-NH2; triazole I:1-II:1)
HC10 (Erythrocyte [22]): 150 µM

MIC (Escherichia coli [23]): 8 µM (≈ 19.9 µg/mL)
MIC (Pseudomonas aeruginosa [24]): 16 µM (≈ 39.9 µg/mL)
MIC (Staphylococcus aureus [25]): 4 µM (≈ 9.97 µg/mL)
MIC (Bacillus subtilis [26]): 4 µM (≈ 9.97 µg/mL)
Structure (SMILES): CC[C@H](C)[C@H](NC(=O)[C@H](CCCNC(=N)N)NC(=O)[C@H](CCCCN)NC(=O)[C@H](CC(C)C)NC(=O)[C@H](CC(C)C)NC(=O)CNC(=O)[C@H](Cc1cn(CCCC[C@H](NC(C)=O)C(=O)N[C@@H](CCCNC(=N)N)C(=O)N[C@@H](CCCNC(=N)N)C(=O)N[C@@H](Cc2c[nH]c3ccccc23)C(=O)N[C@@H](Cc2c[nH]c3ccccc23)C(=O)N[C@@H](CCCNC(=N)N)C(=O)N[C@@H](Cc2ccccc2)C(N)=O)nn1)NC(C)=O)C(=O)N[C@@H](CCCCN)C(=O)N[C@H](C(=O)N[C@@H](CC(C)C)C(=O)N[C@@H](CC(C)C)C(N)=O)[C@@H](C)O (I: Ac-[Pra]GLLKRIKTLL-NH2 / II: Ac-[Lys(N3)]RRWWRF-NH2; triazole I:1-II:1)
HC10 (Erythrocyte [22]): > 150 µM
